Source: patent US20260285888A1, “HETEROCYCLIC COMPOUND AND USE THEREOF” (OTSUKA PHARMACEUTICAL CO., LTD., priority 2023, published 2026)

Columns and labels:
[1] = Study for confirmation of conversion to brexpiprazole in a buffer (stability of the evaluation compounds); type: physicochemical; conditions: in buffer, average of duplicate; for Concentration of brexpiprazole formed: 60-minute reaction sample; for Concentration of evaluation compound decreased: decrease in 60-minute vs 0-minute reaction sample
In short: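 Compounds (final 1 μmol/L, from 100 μmol/L working solutions) incubated in buffer at 37° C. for 0 or 60 min, in duplicate, after 3 min pre-incubation of the reaction solution. Reactions stopped with acetonitrile/isopropanol (4:1) containing internal standards; compound and formed brexpiprazole quantified against 0.01–1 μmol/L calibration samples.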

in vitro = type: cell-based, human; conditions: human, differentiated hl-60 cells, 300 μmol/L, about 24 hours, PMA-differentiated HL-60 cells, LDH; no-treatment 0%, cell lysis buffer 100%; read-out: cytotoxicity (%) Evaluation compound results
In short: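 HL-60 cells differentiated ~72 h with 10 nM PMA, then exposed ~24 h to compound at 300 μmol/L final in RPMI with 2% FBS. LDH release in supernatant gave cytotoxicity % scaled between untreated (0%) and lysis-buffer (100%) groups; triplicate.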

Row | Structure (SMILES) | Concentration of brexpiprazole formed [1] [µM] | Concentration of evaluation compound decreased [1] [µM] | cytotoxicity at 24 h, 300 µM (in vitro) [%]
1 | COCCOCCOC(=O)OCOP(=O)([O-])OC[N+]1(CCCCOc2ccc3ccc(=O)[nH]c3c2)CCN(c2cccc3sccc23)CC1 [EX 34, (4-(benzo[b]thiophen-4-yl)-1-(4-((2-oxo-1,2-dihydroquinolin-7-yl)oxy)butyl)piperazin-1-ium-1-yl)methyl (3-oxo-2,4,7,10-tetraoxaundecyl) phosphate] | 0.00 | 0.01 | -10
2 | CN1CCN(CCOP(=O)([O-])OC[N+]2(CCCCOc3ccc4ccc(=O)[nH]c4c3)CCN(c3cccc4sccc34)CC2)CC1 [EX 117, (4-(benzo[b]thiophen-4-yl)-1-(4-((2-oxo-1,2-dihydroquinolin-7-yl)oxy)butyl)piperazin-1-ium-1-yl)methyl (2-(4-methylpiperazin-1-yl)ethyl) phosphate] | 0.00 | 0.05 | -7
3 | CC(C)(O)CCOP(=O)([O-])OC[N+]1(CCCCOc2ccc3ccc(=O)[nH]c3c2)CCN(c2cccc3sccc23)CC1 [EX 41, (4-(benzo[b]thiophen-4-yl)-1-(4-((2-oxo-1,2-dihydroquinolin-7-yl)oxy)butyl)piperazin-1-ium-1-yl)methyl (3-hydroxy-3-methylbutyl) phosphate] | 0.00 | 0.07 | -3
4 | C[C@H](NP(=O)([O-])OC[N+]1(CCCCOc2ccc3ccc(=O)[nH]c3c2)CCN(c2cccc3sccc23)CC1)C(N)=O [EX 158, (4-(benzo[b]thiophen-4-yl)-1-(4-((2-oxo-1,2-dihydroquinolin-7-yl)oxy)butyl)piperazin-1-ium-1-yl)methyl (S)-(1-amino-1-oxopropan-2-yl)phosphoramidate] | 0.00 | 0.07 | -3
5 | CSCCCOP(=O)([O-])OC[N+]1(CCCCOc2ccc3ccc(=O)[nH]c3c2)CCN(c2cccc3sccc23)CC1 [EX 66, (4-(benzo[b]thiophen-4-yl)-1-(4-((2-oxo-1,2-dihydroquinolin-7-yl)oxy)butyl)piperazin-1-ium-1-yl)methyl (3-(methylthio)propyl) phosphate] | 0.00 | 0.17 | -2
6 | COCCOCOCCCCOP(=O)([O-])OC[N+]1(CCCCOc2ccc3ccc(=O)[nH]c3c2)CCN(c2cccc3sccc23)CC1 [EX 53, (4-(benzo[b]thiophen-4-yl)-1-(4-((2-oxo-1.2-dihydroquinolin-7-yl)oxy)butyl)piperazin-1-ium-1-yl)methyl (4-((2-methoxyethoxy)methoxy)butyl) phosphate] | 0.00 | 0.06 | -3
7 | CC(C)(C)C(=O)OCCCCCCOP(=O)([O-])OC[N+]1(CCCCOc2ccc3ccc(=O)[nH]c3c2)CCN(c2cccc3sccc23)CC1 [EX 102, (4-(benzo[b]thiophen-4-yl)-1-(4-((2-oxo-1,2-dihydroquinolin-7-yl)oxy)butyl)piperazin-1-ium-1-yl)methyl (6-(pivaloyloxy)hexyl) phosphate] | 0.00 | 0.07 | 16
8 | CC(O)CCOP(=O)([O-])OC[N+]1(CCCCOc2ccc3ccc(=O)[nH]c3c2)CCN(c2cccc3sccc23)CC1 (stereo not drawn) [EX 40, (4-(benzo[b]thiophen-4-yl)-1-(4-((2-oxo-1,2-dihydroquinolin-7-yl)oxy)butyl)piperazin-1-ium-1-yl)methyl (3-hydroxybutyl) phosphate] | 0.00 | 0.06 | -5
9 | COCCOCCOCCOC(=O)OCOP(=O)([O-])OC[N+]1(CCCCOc2ccc3ccc(=O)[nH]c3c2)CCN(c2cccc3sccc23)CC1 [EX 35, (4-(benzo[b]thiophen-4-yl)-1-(4-((2-oxo-1,2-dihydroquinolin-7-yl)oxy)butyl)piperazin-1-ium-1-yl)methyl (3-oxo-2,4,7,10,13-pentaoxatetradecyl) phosphate] | 0.00 | -0.02 | -9
10 | O=c1ccc2ccc(OCCCC[N+]3(COP(=O)([O-])OCCOCCO)CCN(c4cccc5sccc45)CC3)cc2[nH]1 [EX 93, (4-(benzo[b]thiophen-4-yl)-1-(4-((2-oxo-1,2-dihydroquinolin-7-yl)oxy)butyl)piperazin-1-ium-1-yl)methyl (2-(2-hydroxyethoxy)ethyl) phosphate] | 0.00 | -0.01 | -6
11 | CC(C)OCCOC(=O)OCOP(=O)([O-])OC[N+]1(CCCCOc2ccc3ccc(=O)[nH]c3c2)CCN(c2cccc3sccc23)CC1 [EX 133, (4-(benzo[b]thiophen-4-yl)-1-(4-((2-oxo-1,2-dihydroquinolin-7-yl)oxy)butyl)piperazin-1-ium-1-yl)methyl ((((2-isopropoxyethyloxy)carbonyl)oxy)methyl) phosphate] | 0.00 | 0.14 | -5
12 | CCCOCCOP(=O)([O-])OC[N+]1(CCCCOc2ccc3ccc(=O)[nH]c3c2)CCN(c2cccc3sccc23)CC1 [EX 95, (4-(benzo[b]thiophen-4-yl)-1-(4-((2-oxo-1.2-dihydroquinolin-7-yl)oxy)butyl)piperazin-1-ium-1-yl)methyl (2-propoxyethyl) phosphate] | 0.00 | -0.01 | -4
13 | COCCOP(=O)([O-])OC[N+]1(CCCCOc2ccc3ccc(=O)[nH]c3c2)CCN(c2cccc3sccc23)CC1 [EX 12, (4-(benzo[b]thiophen-4-yl)-1-(4-((2-oxo-1,2-dihydroquinolin-7-yl)oxy)butyl)piperazin-1-ium-1-yl)methyl (2-methoxyethyl) phosphate] | 0.00 | 0.02 | -7
14 | O=c1ccc2ccc(OCCCC[N+]3(COP(=O)([O-])OCC4(CO)CC4)CCN(c4cccc5sccc45)CC3)cc2[nH]1 [EX 47, (4-(benzo[b]thiophen-4-yl)-1-(4-((2-oxo-1,2-dihydroquinolin-7-yl)oxy)butyl)piperazin-1-ium-1-yl)methyl ((1-(hydroxymethyl)cyclopropyl)methyl) phosphate] | 0.00 | 0.00 | -5
15 | CCOC(=O)C(CC)OP(=O)([O-])OC[N+]1(CCCCOc2ccc3ccc(=O)[nH]c3c2)CCN(c2cccc3sccc23)CC1 (stereo not drawn) [EX 110, (4-(benzo[b]thiophen-4-yl)-1-(4-((2-oxo-1,2-dihydroquinolin-7-yl)oxy)butyl)piperazin-1-ium-1-yl)methyl (1-ethoxy-1-oxobutan-2-yl) phosphate] | 0.00 | 0.07 | -3
16 | C[C@@H]1CN(CCOP(=O)([O-])OC[N+]2(CCCCOc3ccc4ccc(=O)[nH]c4c3)CCN(c3cccc4sccc34)CC2)C[C@H](C)O1 [EX 116, (4-(benzo[b]thiophen-4-yl)-1-(4-((2-oxo-1,2-dihydroquinolin-7-yl)oxy)butyl)piperazin-1-ium-1-yl)methyl (2-((2S,6R)-2,6-dimethylmorpholino)ethyl) phosphate] | 0.00 | 0.09 | -9
17 | CC(C)(C)OC(=O)NC(C)(C)C(=O)OCOP(=O)([O-])OC[N+]1(CCCCOc2ccc3ccc(=O)[nH]c3c2)CCN(c2cccc3sccc23)CC1 [EX 128, (4-(benzo[b]thiophen-4-yl)-1-(4-((2-oxo-1,2-dihydroquinolin-7-yl)oxy)butyl)piperazin-1-ium-1-yl)methyl (((2-(tert-butoxycarbonyl)amino)-2-methylpropanoyl)oxy)methyl) phosphate] | 0.00 | -0.03 | 2
18 | COCCCOC(=O)OCOP(=O)([O-])OC[N+]1(CCCCOc2ccc3ccc(=O)[nH]c3c2)CCN(c2cccc3sccc23)CC1 [EX 139, (4-(benzo[b]thiophen-4-yl)-1-(4-((2-oxo-1,2-dihydroquinolin-7-yl)oxy)butyl)piperazin-1-ium-1-yl)methyl ((((3-methoxypropoxy)carbonyl)oxy)methyl) phosphate] | 0.00 | 0.12 | -4
